Where a name gives a salt, the structure may show the parent alone. Read-outs that look alike come from different tables or passages of the source.
Tests used:
[1] = molecular target: human dopamine D2Long (D2L) receptors (Homo sapiens, UniProt P14416)
[2] = molecular target: T1, human dopamine D1 receptor (Homo sapiens, UniProt P21728); test: [3H]-SCH-23390 binding to cloned human dopamine D1 receptors (CHO cell membranes)
T1 construct: A 1.4 Kb Hind III to Xho I fragment was subcloned into the vector pMMLV; expressed in transfected cells; host or cells: CHO cells, clone CHO-D1M#9 (plasmid pHD1MMLV), membranes

D1 receptor = molecular target: T2, D1 receptor (Homo sapiens, UniProt P21728); test: D1 Activation Adenylyl Cyclase Assay (cAMP FlashPlate, D1 transfected CHO cell line); assay type: cell-based
T2 construct: expressed in transfected cells; host or cells: D1 transfected CHO cell line
In short: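 D1-transfected CHO cells (50,000/well) were exposed to compound 1/10 serial dilutions for 8 min at RT; cAMP measured by competitive 125I-cAMP FlashPlate against a standard curve. Response normalised between basal and saturating D1 agonist; EC50 at half-maximal stimulation, plateau reported as % maximal dopamine stimulation.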

[3] = competitive binding, [3H]-SCH-23390, cloned human D1 in CHO membranes, read-out: D1 affinity Ki
[4] = agonist activity at the D1 receptor, adenylate cyclase assay, D1 transfected CHO cell line, read-out: D1 EC50

T2 sequence (P21728 whole entry): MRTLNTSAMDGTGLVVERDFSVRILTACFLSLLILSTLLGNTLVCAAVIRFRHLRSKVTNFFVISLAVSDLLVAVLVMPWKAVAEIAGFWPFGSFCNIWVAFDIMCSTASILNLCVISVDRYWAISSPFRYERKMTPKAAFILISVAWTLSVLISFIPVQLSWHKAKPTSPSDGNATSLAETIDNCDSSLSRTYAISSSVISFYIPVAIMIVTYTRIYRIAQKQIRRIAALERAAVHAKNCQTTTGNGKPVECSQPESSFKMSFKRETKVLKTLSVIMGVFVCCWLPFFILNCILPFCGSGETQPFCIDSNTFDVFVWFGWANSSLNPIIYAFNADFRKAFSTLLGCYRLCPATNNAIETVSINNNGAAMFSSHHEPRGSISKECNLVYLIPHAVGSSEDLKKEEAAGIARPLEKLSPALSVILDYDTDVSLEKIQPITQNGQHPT
T1 sequence (P21728 whole entry, the tested form may be a part): as the sequence (P21728 whole entry) above
Sequence of human dopamine D2Long (D2L) receptors (P14416 whole entry): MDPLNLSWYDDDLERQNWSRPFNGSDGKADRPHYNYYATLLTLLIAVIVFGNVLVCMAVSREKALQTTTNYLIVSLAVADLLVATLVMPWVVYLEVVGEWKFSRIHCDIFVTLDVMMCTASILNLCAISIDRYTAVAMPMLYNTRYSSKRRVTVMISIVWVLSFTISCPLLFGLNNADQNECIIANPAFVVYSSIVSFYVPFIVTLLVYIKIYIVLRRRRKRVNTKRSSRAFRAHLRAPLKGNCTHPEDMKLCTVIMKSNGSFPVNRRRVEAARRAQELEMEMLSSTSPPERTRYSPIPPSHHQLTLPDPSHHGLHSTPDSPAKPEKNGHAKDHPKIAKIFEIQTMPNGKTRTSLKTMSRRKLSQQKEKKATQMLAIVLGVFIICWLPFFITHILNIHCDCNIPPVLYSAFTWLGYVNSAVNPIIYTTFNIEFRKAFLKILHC

Ki [1] [µM] | Ki [2, 3] [µM] | EC50 (D1 receptor; [4]) [µM] | SMILES | Ki [2] [µM] | EC50 (D1 receptor) [µM]
≥ 10 | 0.0596 | 0.012 | Cc1ccc2c(c1O)C[C@@H](C1CCN(Cc3ccnc4ccccc34)CC1)O[C@H]2CN [Example 57, (1R,3S)-1-Aminomethyl-6-methyl-3-(1-quinolin-4-ylmethyl-piperidin-4-yl)-isochroman-5-ol dihydrochloride] |  | 
0.328 | 0.021 | 0.0017 | Cc1ccc2c(c1O)C[C@@H](C1CCN(C(=O)Nc3cccc(O)c3)CC1)O[C@H]2CN [Example 126, 4-((1R,3S)-1-Aminomethyl-5-hydroxy-6-methyl-isochroman-3-yl)-piperidine-1-carboxylic acid (3-hydroxy-phenyl)-amide] |  | 
0.096 | 0.042 | 0.044 | Cc1ccc2c(c1O)C[C@@H](C1CCN(Cc3ccccc3Cl)CC1)O[C@H]2CN [Example 35, (1R,3S)-1-Aminomethyl-3-[1-(2-chloro-benzyl)-piperidin-4-yl]-6-methyl-isochroman-5-ol dihydrobromide] |  | 
0.0238 | 0.0239 | 0.027 | Cc1ccc2c(c1O)C[C@@H](C1CCN(Cc3csc4ccccc34)CC1)O[C@H]2CN [Example 87, (1R,3S)-1-Aminomethyl-6-methyl-3-(1-benzo[b]thiophen-3-ylmethyl-piperidin-4-yl)-isochroman-5-ol dihydrochloride] |  | 
0.449 | 0.0536 | 0.016 | Cc1ccc2c(c1O)C[C@@H](C1CCN(Cc3ccc4ccccc4n3)CC1)O[C@H]2CN [Example 55, (1R,3S)-1-Aminomethyl-6-methyl-3-(1-quinolin-2-ylmethyl-piperidin-4-yl)-isochroman-5-ol dihydrochloride] |  | 
0.285 | 0.113 | 0.035 | CNC[C@@H]1O[C@H](C2CCN(CCc3ccccc3)CC2)Cc2c1ccc(C)c2O [Example 94, (1R,3S)-6-Methyl-1-methylaminomethyl-3-(1-phenethyl-piperidin-4-yl)-isochroman-5-ol dihydrochloride] |  | 
0.575 | 0.012 | 0.013 | COc1cccc(CN2CCC([C@@H]3Cc4c(ccc(C)c4O)[C@H](CN)O3)CC2)c1 [Example 31, (1R,3S)-1-Aminomethyl-3-[1-(3-methoxy-benzyl)-piperidin-4-yl]-6-methyl-isochroman-5-ol dihydrochloride] |  | 
0.389 | 0.0256 | 0.016 | Cc1ccc2c(c1O)C[C@@H](C1CCN(Cc3cc4ccccc4o3)CC1)O[C@H]2CN [Example 85, (1R,3S)-1-Aminomethyl-3-(1-benzofuran-2-ylmethyl-piperidin-4-yl)-6-methyl-isochroman-5-ol dihydrochloride] |  | 
0.041 | 0.092 | 0.58 | Cc1ccc2c(c1O)C[C@@H](C1CCN(Cc3cc(C(F)(F)F)ccc3C(F)(F)F)CC1)O[C@H]2CN [Example 76, (1R,3S)-1-Aminomethyl-3-[1-(2,5-bis-trifluoromethyl-benzyl)-piperidin-4-yl]-6-methyl-isochroman-5-ol dihydrochloride] |  | 
≥ 10 | 0.0664 | 0.17 | Cc1ccc2c(c1O)C[C@@H](C1CCN(Cc3cccs3)CC1)O[C@H]2CN [Example 47, (1R,3S)-1-Aminomethyl-6-methyl-3-(1-thiophen-2-ylmethyl-piperidin-4-yl)-isochroman-5-ol dihydrochloride] |  | 
0.199 | 0.0189 | 0.008 | Cc1ccc2c(c1O)C[C@@H](C1CCN(Cc3c[nH]c4ccccc34)CC1)O[C@H]2CN [Example 89, (1R,3S)-1-Aminomethyl-3-[1-(1H-indol-3-ylmethyl)-piperidin-4-yl]-6-methyl-isochroman-5-ol dihydrochloride] |  | 

More lines, now with the values behind:

SMILES | Ki [1] [µM] | Ki [2, 3] [µM] | EC50 (D1 receptor; [4]) [µM] | Ki [2] [µM] | EC50 (D1 receptor) [µM]
Cc1ccc2c(c1O)C[C@@H](C1CCN(CCC(C)NC(=O)c3ccc(Cl)cc3Cl)CC1)O[C@H]2CN (stereo partly drawn) [Example 17, N-{3-[4-((1R,3S)-1-Aminomethyl-5-hydroxy-6-methyl-isochroman-3-yl)-piperidin-1-yl]-1-methyl-propyl}-2,4-dichloro-benzamide dihydrochloride] | ≥ 100 | 0.138 | 0.018 |  | 
Cc1ccc2c(c1O)C[C@@H](C1CCN(S(=O)(=O)c3ccc4ccccc4c3)CC1)O[C@H]2CN [Example 147, (1R 3S)-1-Aminomethyl-6-methyl-3-[1-(naphthalene-2-sulfonyl)-piperidin-4-yl]-isochroman-5-ol hydrochloride] | 0.623 | 0.108 | 0.394 |  | 
CCNC[C@@H]1O[C@H](C2CCN(CC(=O)c3ccccc3)CC2)Cc2c1ccc(C)c2O [Example 179, 2-[4-((1R,3S)-1-Ethylaminomethyl-5-hydroxy-6-methyl-isochroman-3-yl)-piperidin-1-yl]-1-phenyl-ethanone] | 0.215 | 0.139 | 0.81 |  | 
Cc1ccc(OC(=O)N2CCC([C@@H]3Cc4c(ccc(C)c4O)[C@H](CN)O3)CC2)cc1 [Example 114, 4-((1R,3S)-1-Aminomethyl-5-hydroxy-6-methyl-isochroman-3-yl)-piperidine-1-carboxylic acid p-tolyl ester hydrochloride] | 0.511 |  |  | 0.0646 | 0.00085
Cc1ccc2c(c1O)C[C@@H](C1CCN(CCC(C)c3noc4cc(F)ccc34)CC1)O[C@H]2CN (stereo partly drawn) [Example 104, (1R,3S)-1-Aminomethyl-3-{1-[3-(6-fluoro-benzo[d]isoxazol-3-yl)butyl]piperidin-4-yl}-6-methylisochroman-5-ol dihydrochloride] | 0.122 | 0.07 | 0.116 |  | 
Cc1ccc2c(c1O)C[C@@H](C1CCN(CCC(C)NC(=O)c3ccc4ccccc4c3)CC1)O[C@H]2CN (stereo partly drawn) [Example 19, Naphthalene-2-carboxylic acid {3-[4-((1R,3S)-1-aminomethyl-5-hydroxy-6-methyl-isochroman-3-yl)-piperidin-1-yl]-1-methyl-propyl}-amide dihydrochloride] | 0.31 | 0.158 | 0.0061 |  | 
Cc1ccc2c(c1O)C[C@@H](C1CCN(S(=O)(=O)N3CCc4ccccc4C3)CC1)O[C@H]2CN [Example 167, (1R,3S)-1-Aminomethyl-3-[1-(3,4-dihydro-1H-isoquinoline-2-sulfonyl)-piperidin-yl]-6-methyl-isochroman-5-ol hydrochloride] | 0.528 | 0.074 | 0.077 |  | 
Cc1ccc2c(c1O)C[C@@H](C1CCN(C(=O)Oc3ccc4ccccc4c3)CC1)O[C@H]2CN [Example 123, 4-((1R,3S)-1-Aminomethyl-5-hydroxy-6-methyl-isochroman-3-yl)-piperidine-1-carboxylic acid naphthalen-2-yl ester hydrochloride] | 0.154 |  |  | 0.037 | 0.01
Cc1ccc2c(c1O)C[C@@H](C1CCN(CCC(C)NC(=O)c3cc4ccccc4s3)CC1)O[C@H]2CN (stereo partly drawn) [Example 20, Benzo[b]thiophene-2-carboxylic acid {3-[4-((1R,3S)-1-aminomethyl-5-hydroxy-6-methyl-isochroman-3-yl)-piperidin-1-yl]-1-methyl-propyl}-amide dihydrochloride] | 0.265 | 0.0524 | 0.061 |  | 
